Measurements from US6479435B1, “Diaryl ethers and processes for their preparation and herbicidal and desiccant compositions containing them” (ISK Americas Incorporated, priority 1997, dated 2002).

Experiments:
Assay type in all cases: in vivo
[1] = tested on: soybean (Glycine max L., var. Pella 86, SOY); assay: Post-emerge greenhouse test, crop damage rating; set-up: key to crop damage rating SOY: 0-100 scale: 0 = no damage, 100 = complete death of all plants; conditions: 14 days after application, scale 0-100
In short: (§1)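 Compounds in acetone with 0.25% v/v non-ionic surfactant were track-sprayed at 187 l/ha over plants at the 2-3 leaf stage, at 63 to 1000 g ai/ha. Pots were bottom-watered. Injury was scored visually 14 days later on a 0-100 scale, where 0 is no damage and 100 is complete plant death.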

[2] = tested on: field corn (Zea mays L., var. Dekalb 535, CORN); assay: Pre-emerge greenhouse test, crop damage rating; conditions: 14 days after application, rating scale 0-100
In short: (§2)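 Seeds sown in sandy loam mix one day before track-sprayer application of compounds in acetone at 125–1000 g ai/ha (187 l/ha), then surface-watered to incorporate and bottom-watered. Visual rating 14 days after application on a 0–100 scale (0 = no damage, 100 = all plants dead).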

[3] = tested on: upland rice (Oryza sp., var.Tebonnet, RICE); assay: Pre-emerge greenhouse test, crop damage rating; conditions: 14 days after application, rating scale 0-100
In short: as §2

[4] = tested on: common ragweed (Ambrosia artemisiifolia L., AMBEL); assay: Post-emerge greenhouse herbicide test, phytotoxicity rating; conditions: 14 days after application, scale 0-100
Description: A standard greenhouse herbicide activity screening system was used to evaluate the herbicidal efficacy and crop safety of these test compounds. Six broadleaf weed species including redroot pigweed (Amaranthus retroflexus, AMARE), velvetleaf (Abutilon theophrasti, ABUTH), sicklepod (Cassia obtusifolia, CASOB), ivyleaf morningglory (Ipomoea hederacea, IPOHE), lambsquarters (Chenopodium album, CHEAL) and common ragweed (Ambrosia artemisiifolia L., AMBEL) were used as test species. Four grass weed species including green foxtail (Setaria viridis, SETVI), barnyardgrass (Echinochloa crusgalli, ECHCG), Johnsongrass (Sorghum halepense, SORHA), and large crabgrass (Digitaria sanguinalis, DIGSA) were also used. In addition, three crop species, field corn (Zea mays L., var. Dekalb 535, CORN), soybean (Glycine max L., var. Pella 86, SOY), and upland rice (Oryza sp., var.Tebonnet, RICE) were included.
All test compounds were dissolved in acetone and applied to the test units in a volume of 187 l/ha. […] Plants were arranged on a shelf so that the top of the canopy (post-emerge) or top of the soil surface (pre-emerge) was 40-45 cm below the nozzle. Pressurized air was used to force the test solution through the nozzle as it was mechanically advanced (via electrically driven chain drive) over the top of all test plants/pots. This application simulates a typical commercial field herbicide application.
In the post-emerge test, a commercial non-ionic surfactant was also included (0.25% v/v) to enhance wetting of the leaf surfaces Qf target plants at rates ranging from 63 g ai/ha to 1000 g ai/ha. For post-emerge tests, seeds were planted 8-21 days prior to the test to allow emergence and good foliage development prior to application of the test substances. At the time of the post-emerge application, plants of all species were usually at the 2-3 leaf stage of development. Post-emerge test units were always bottom-watered.
At 14 days after application of the test materials, phytotoxicity ratings were recorded. A rating scale of 0-100 was used as previously described in Research Methods in Weed Science, 2nd edition, B. Truelove, Ed., Southern Weed Science Society, Auburn University, Auburn, Ala., 1977. Briefly, “0” corresponds to no damage and “100” corresponds to complete death of all plants in the test unit. This scale was used both to determine efficacy against weed species and damage to crop species. Herbicide activity data for various compounds of this invention, which are shown by compound number in Tables 1-9, are shown in Tables 13 and 14.

[5] = tested on: soybean (Glycine max L., var. Pella 86, SOY); assay: Pre-emerge greenhouse test, crop damage rating; set-up: key to SOY crop damage rating: 0 = no damage, 100 = complete death of all plants; conditions: 14 days after application, rating scale 0-100
In short: as §2

[6] = tested on: velvetleaf (Abutilon theophrasti, ABUTH); assay: Post-emerge greenhouse herbicide test, phytotoxicity rating; conditions: 14 days after application, scale 0-100
In short: as §1

[7] = tested on: sicklepod (Cassia obtusifolia, CASOB); assay: as above; conditions: 14 days after application, scale 0-100
In short: as §1

[8] = tested on: ivyleaf morningglory (Ipomoea hederacea, IPOHE); assay: as above; conditions: 14 days after application, scale 0-100
In short: as §1

[9] = tested on: large crabgrass (Digitaria sanguinalis, DIGSA); assay: as above; conditions: 14 days after application, scale 0-100
In short: as §1

[10] = tested on: redroot pigweed (Amaranthus retroflexus, AMARE); assay: as above; conditions: 14 days after application, scale 0-100
In short: as §1

[11] = tested on: Johnsongrass (Sorghum halepense, SORHA); assay: as above; conditions: 14 days after application, scale 0-100
In short: as §1

[12] = tested on: lambsquarters (Chenopodium album, CHEAL); assay: as above; conditions: 14 days after application, scale 0-100
In short: as §1

[13] = tested on: barnyardgrass (Echinochloa crusgalli, ECHCG); assay: as above; conditions: 14 days after application, scale 0-100
In short: as §1

[14] = tested on: green foxtail (Setaria viridis, SETVI); assay: as above; conditions: 14 days after application, scale 0-100
In short: as §1

[15] = tested on: velvetleaf (Abutilon theophrasti, ABUTH); assay: Pre-emerge greenhouse herbicide test, phytotoxicity rating; conditions: 14 days after application, rating scale 0-100
In short: as §2

[16] = tested on: sicklepod (Cassia obtusifolia, CASOB); assay: as above; conditions: 14 days after application, rating scale 0-100
In short: as §2

[17] = tested on: ivyleaf morningglory (Ipomoea hederacea, IPOHE); assay: as above; conditions: 14 days after application, rating scale 0-100
In short: as §2

[18] = tested on: large crabgrass (Digitaria sanguinalis, DIGSA); assay: as above; conditions: 14 days after application, rating scale 0-100
In short: as §2

[19] = tested on: redroot pigweed (Amaranthus retroflexus, AMARE); assay: as above; conditions: 14 days after application, rating scale 0-100
In short: as §2

[20] = tested on: Johnsongrass (Sorghum halepense, SORHA); assay: as above; conditions: 14 days after application, rating scale 0-100
In short: as §2

[21] = tested on: lambsquarters (Chenopodium album, CHEAL); assay: as above; conditions: 14 days after application, rating scale 0-100
In short: as §2

[22] = tested on: barnyardgrass (Echinochloa crusgalli, ECHCG); assay: as above; conditions: 14 days after application, rating scale 0-100
In short: as §2

[23] = tested on: green foxtail (Setaria viridis, SETVI); assay: as above; conditions: 14 days after application, rating scale 0-100
In short: as §2

[24] = tested on: field corn (Zea mays L., var. Dekalb 535, CORN); assay: Post-emerge greenhouse test, crop damage rating; conditions: 14 days after application, scale 0-100
In short: as §1

[25] = tested on: upland rice (Oryza sp., var.Tebonnet, RICE); assay: Post-emerge greenhouse test, crop damage rating; conditions: 14 days after application, scale 0-100
In short: as §1

CCOC(=O)C(C)Oc1ccc(Oc2cc(-n3c(=O)n4n(c3=S)CCCC4)c(F)cc2Cl)c([N+](=O)[O-])c1 (stereo not drawn) [Compound 8-39]
10: phytotoxicity rating DIGSA ([9]; rate 230 g ai/ha) | phytotoxicity rating SORHA ([11]; rate 230 g ai/ha) | phytotoxicity rating SETVI ([14]; rate 63 g ai/ha) | phytotoxicity rating SETVI ([14]; rate 230 g ai/ha) | crop damage rating CORN ([24]; rate 230 g ai/ha)
95: CASOB phytotoxicity rating ([16]; Rate 125 g al/ha)
50: phytotoxicity rating CHEAL ([12]; rate 63 g ai/ha)
70: phytotoxicity rating AMARE ([10]; rate 63 g ai/ha) | phytotoxicity rating CHEAL ([12]; rate 230 g ai/ha)
100: phytotoxicity rating ABUTH ([6]; rate 63 g ai/ha) | phytotoxicity rating ABUTH ([6]; rate 230 g ai/ha) | phytotoxicity rating CASOB ([7]; rate 63 g ai/ha) | phytotoxicity rating IPOHE ([8]; rate 63 g ai/ha) | ABUTH phytotoxicity rating ([15]; Rate 250 g al/ha) | AMARE phytotoxicity rating ([19]; Rate 125 g al/ha) | AMARE phytotoxicity rating ([19]; Rate 250 g al/ha) | CHEAL phytotoxicity rating ([21]; Rate 250 g al/ha)
90: phytotoxicity rating IPOHE ([8]; rate 230 g ai/ha)
40: SETVI phytotoxicity rating ([23]; Rate 250 g al/ha)
60: crop damage rating SOY ([1]; rate 63 g ai/ha) | phytotoxicity rating AMBEL ([4]; rate 63 g ai/ha)
80: crop damage rating SOY ([1]; rate 230 g ai/ha) | phytotoxicity rating AMBEL ([4]; rate 230 g ai/ha) | phytotoxicity rating AMARE ([10]; rate 230 g ai/ha)
0: CORN crop damage rating ([2]; Rate 125 g al/ha) | CORN crop damage rating ([2]; Rate 250 g al/ha) | SOY crop damage rating ([5]; Rate 125 g al/ha) | SOY crop damage rating ([5]; Rate 250 g al/ha) | phytotoxicity rating DIGSA ([9]; rate 63 g ai/ha) | phytotoxicity rating SORHA ([11]; rate 63 g ai/ha) | phytotoxicity rating ECHCG ([13]; rate 63 g ai/ha) | CASOB phytotoxicity rating ([16]; Rate 250 g al/ha) | IPOHE phytotoxicity rating ([17]; Rate 125 g al/ha) | IPOHE phytotoxicity rating ([17]; Rate 250 g al/ha) | DIGSA phytotoxicity rating ([18]; Rate 125 g al/ha) | DIGSA phytotoxicity rating ([18]; Rate 250 g al/ha) | SORHA phytotoxicity rating ([20]; Rate 125 g al/ha) | SORHA phytotoxicity rating ([20]; Rate 250 g al/ha) | ECHCG phytotoxicity rating ([22]; Rate 125 g al/ha) | ECHCG phytotoxicity rating ([22]; Rate 250 g al/ha) | SETVI phytotoxicity rating ([23]; Rate 125 g al/ha)
15: crop damage rating CORN ([24]; rate 63 g ai/ha) | crop damage rating RICE ([25]; rate 63 g ai/ha) | crop damage rating RICE ([25]; rate 230 g ai/ha)
30: phytotoxicity rating CASOB ([7]; rate 230 g ai/ha) | phytotoxicity rating ECHCG ([13]; rate 230 g ai/ha)
20: RICE crop damage rating ([3]; Rate 250 g al/ha) | ABUTH phytotoxicity rating ([15]; Rate 125 g al/ha)
99: CHEAL phytotoxicity rating ([21]; Rate 125 g al/ha)

CCOC(=O)C(C)Oc1ccc(Oc2cc(-n3c(=O)n4n(c3=S)CCCC4)c(F)cc2Cl)c(N)c1 (stereo not drawn) [Compound 8-40]
100: phytotoxicity rating ABUTH ([6]; rate 63 g ai/ha) | phytotoxicity rating ABUTH ([6]; rate 250 g ai/ha) | phytotoxicity rating IPOHE ([8]; rate 250 g ai/ha) | AMARE phytotoxicity rating ([19]; Rate 250 g al/ha) | CHEAL phytotoxicity rating ([21]; Rate 250 g al/ha)
20: phytotoxicity rating AMBEL ([4]; rate 250 g ai/ha) | CASOB phytotoxicity rating ([16]; Rate 250 g al/ha)
10: phytotoxicity rating SETVI ([14]; rate 250 g ai/ha) | crop damage rating CORN ([24]; rate 250 g ai/ha)
50: ABUTH phytotoxicity rating ([15]; Rate 125 g al/ha) | CHEAL phytotoxicity rating ([21]; Rate 125 g al/ha)
30: ABUTH phytotoxicity rating ([15]; Rate 250 g al/ha)
60: crop damage rating SOY ([1]; rate 250 g ai/ha) | phytotoxicity rating CHEAL ([12]; rate 63 g ai/ha) | AMARE phytotoxicity rating ([19]; Rate 125 g al/ha)
80: crop damage rating SOY ([1]; rate 63 g ai/ha) | phytotoxicity rating AMBEL ([4]; rate 63 g ai/ha) | phytotoxicity rating AMARE ([10]; rate 63 g ai/ha) | phytotoxicity rating CHEAL ([12]; rate 250 g ai/ha)
75: phytotoxicity rating CASOB ([7]; rate 250 g ai/ha)
90: phytotoxicity rating AMARE ([10]; rate 250 g ai/ha)
40: phytotoxicity rating IPOHE ([8]; rate 63 g ai/ha)
0: CORN crop damage rating ([2]; Rate 125 g al/ha) | CORN crop damage rating ([2]; Rate 250 g al/ha) | RICE crop damage rating ([3]; Rate 125 g al/ha) | RICE crop damage rating ([3]; Rate 250 g al/ha) | SOY crop damage rating ([5]; Rate 125 g al/ha) | SOY crop damage rating ([5]; Rate 250 g al/ha) | phytotoxicity rating CASOB ([7]; rate 63 g ai/ha) | phytotoxicity rating DIGSA ([9]; rate 63 g ai/ha) | phytotoxicity rating DIGSA ([9]; rate 250 g ai/ha) | phytotoxicity rating SORHA ([11]; rate 63 g ai/ha) | phytotoxicity rating SORHA ([11]; rate 250 g ai/ha) | phytotoxicity rating ECHCG ([13]; rate 63 g ai/ha) | phytotoxicity rating ECHCG ([13]; rate 250 g ai/ha) | phytotoxicity rating SETVI ([14]; rate 63 g ai/ha) | CASOB phytotoxicity rating ([16]; Rate 125 g al/ha) | IPOHE phytotoxicity rating ([17]; Rate 125 g al/ha) | IPOHE phytotoxicity rating ([17]; Rate 250 g al/ha) | DIGSA phytotoxicity rating ([18]; Rate 125 g al/ha) | DIGSA phytotoxicity rating ([18]; Rate 250 g al/ha) | SORHA phytotoxicity rating ([20]; Rate 125 g al/ha) | SORHA phytotoxicity rating ([20]; Rate 250 g al/ha) | ECHCG phytotoxicity rating ([22]; Rate 125 g al/ha) | ECHCG phytotoxicity rating ([22]; Rate 250 g al/ha) | SETVI phytotoxicity rating ([23]; Rate 125 g al/ha) | SETVI phytotoxicity rating ([23]; Rate 250 g al/ha) | crop damage rating CORN ([24]; rate 63 g ai/ha) | crop damage rating RICE ([25]; rate 63 g ai/ha) | crop damage rating RICE ([25]; rate 250 g ai/ha)
